These results are taken from patent US20090234162A1, “Radioactive Halogen-Labeled Phenyloxyaniline Derivatives” (Taisho Pharmaceutical Co., Ltd., priority 2005, published 2009).

Some results are limits rather than exact numbers.

Data set [1] concerns the target peripheral benzodiazepine receptor (PBR) (Homo sapiens, UniProt P30536). Particulars: background art, Patent Documents 1 and 2; cited from earlier work.
In data set [2] the target is T1, peripheral benzodiazepine receptors (Rattus norvegicus, UniProt P16257).
T1 construct: from tissue
The experiment in a line: Ex vivo autoradiography of rat brain. Type of data set: in vivo. The procedure: FIGS. 1 and 2 show cerebral ex vivo autoradiograms taken in 30 minutes after [^131I]2IDAA1106 was administered to a rat. […] In particular, radioactivity levels in the olfactory bulb, choroid plexus and cerebellum decreased remarkably and were equal to or less than 20% of FIG. 1.

The target of the next data set is T2, intracerebral PBR (Homo sapiens, UniProt P30536).
T2 construct: In imaging the intracerebral PBR distribution of a living human brain with positron emission tomograph (PET); host or cells: living human brain (PET)
T2 sequence (P30536 whole entry): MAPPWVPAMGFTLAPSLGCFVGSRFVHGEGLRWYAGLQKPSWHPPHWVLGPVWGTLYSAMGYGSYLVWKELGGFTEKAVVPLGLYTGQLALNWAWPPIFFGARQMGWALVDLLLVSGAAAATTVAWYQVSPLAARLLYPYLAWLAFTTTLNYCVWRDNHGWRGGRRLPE
Particulars: 11C-labeled ligand, PET, living human brain; cited from earlier work.

Setting [3] is: rat, brain 30 minutes after administration, FIG. 1.

peripheral benzodiazepine receptor (PBR), sequence (P30536 whole entry, species assumed): as the sequence (P30536 whole entry) above

In the case of `COc1ccc(OC)c(CN(C(C)=O)c2cc(F)ccc2Oc2ccccc2)c1` [DAA1106, N-(2,5-dimethoxybenzyl)-N-(5-fluoro-2-phenoxyphenyl)acetamide], in data set [1], the “affinity as PBR ligand” value was “strong affinity” and the “selectivity as PBR ligand” value is given as “high selectivity”.

As to `COc1ccc(OCCF)c(CN(C(C)=O)c2cc(F)ccc2Oc2ccccc2)c1` [FEDAA1106, N-[2-(2-fluoro)ethyl-5-methoxybenzyl]-N-(5-fluoro-2-phenoxyphenyl)acetamide], in data set [1], the “affinity as PBR ligand” value is “strong affinity” and the “selectivity as PBR ligand” value is reported as “high selectivity”.

For `COc1ccc([131I])c(CN(C(C)=O)c2cc(F)ccc2Oc2ccccc2)c1` [[^131I]2IDAA1106, N-(2-[^131I]iodo-5-methoxybenzyl)-N-(5-fluoro-2-phenoxyphenyl)acetamide], the specificity as radioligand result in data set [2] (conclusion from distribution profile and DAA1106 blocking) is “specific to peripheral benzodiazepine receptors”. The “radioactivity levels in the olfactory bulb, choroid plexus and cerebellum relative to FIG. 1” value in data set [2] (rat, 30 minutes, co-administration of DAA1106, FIG. 2 as % of FIG. 1) is on record as at most 20%. In addition, the “radioactivity distribution in the whole brain when DAA1106 administered at the same time” value in data set [2] (rat, 30 minutes, co-administration of DAA1106, FIG. 2 versus FIG. 1) is “decreased in the whole brain”. Moreover, in data set [2] (setting [3]), the brain permeability characteristics entry is “relatively high brain permeability characteristics”; the “radioactivity distribution at the olfactory bulb, choroid plexus and cerebellum” value is “relatively high radioactivity distribution”.

In the case of `COc1ccc(CF)c(CN(C(C)=O)c2cc(F)ccc2Oc2ccccc2)c1` [FMDAA1106, N-(2-fluoromethyl-5-methoxybenzyl)-N-(5-fluoro-2-phenoxyphenyl)acetamide], in data set [1], the “affinity as PBR ligand” value was “strong affinity” and the “selectivity as PBR ligand” value is given as “high selectivity”.

As to `CCC(C)N(C)C(=O)c1cc2ccccc2c(-c2ccccc2Cl)n1` (stereo not drawn) [PK 11195, N-methyl-N-(1-methylpropyl)-1-(2-chlorophenyl)-isoquinoline-3-carboxamide], the “accumulation in the brain” value on intracerebral PBR is listed as “extremely low accumulation in the brain”.
